Drawing on PubChem BioAssay AID1963426 (Molecular Pharmacology Branch, DTP, NCI, 2024), this text covers IC50 and viability, T/C for four compounds.

Several values for one entry are separate records, joined by “and”; a condition that tells them apart may be missing. Equal values may be shown once.

As usually defined, the IC50 is the midpoint of a concentration-inhibition curve. The viability, T/C is the result in the treated group divided by that in the control group, in per cent.

This assay concerns 186277-243-T-J2-PDC complex spheroid growth, % test/control. Put plainly: Anticancer human tumor 186277-243-T-J2-PDC patient-derived colon adenocarcinoma cell line growth inhibition [Asc]. The settings on record: for viability, T/C: stronger effect = lower value. In outline:
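Tumor cells were grown as complex spheroids with human endothelial cells (HUVEC) and human mesenchymal stem cells as stroma. Agents were tested alone and in combination, in half-log steps down from the clinical Cmax, or from 10 microM where Cmax was unknown.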

The mark [1] stands for this setting: curve of first compound, second compound 0.03 µM.
[2] abbreviates: curve of first compound, second compound 0.0949 µM.
The mark [3] stands for this setting: curve of first compound, second compound 0.3 µM.
[4] abbreviates: curve of first compound, second compound 0.949 µM.
Where [5] appears, read: curve of first compound, second compound 3 µM.
Where [6] appears, read: second compound 0.03 µM, first compound 0.0316 µM.
Setting [7] is: second compound 0.03 µM, first compound 0.1 µM.
[8] abbreviates: second compound 0.03 µM, first compound 0.316 µM.
The mark [9] stands for this setting: second compound 0.03 µM, first compound 1 µM.
The mark [10] stands for this setting: second compound 0.03 µM, first compound 3.16 µM.
Where [11] appears, read: second compound 0.03 µM, first compound 10 µM.
[12] abbreviates: second compound 0.0949 µM, first compound 0.0316 µM.
Where [13] appears, read: second compound 0.0949 µM, first compound 0.1 µM.
Where [14] appears, read: second compound 0.0949 µM, first compound 0.316 µM.
The mark [15] stands for this setting: second compound 0.0949 µM, first compound 1 µM.
The mark [16] stands for this setting: second compound 0.0949 µM, first compound 3.16 µM.
[17] abbreviates: second compound 0.0949 µM, first compound 10 µM.
[18] abbreviates: second compound 0.3 µM, first compound 0.0316 µM.
Where [19] appears, read: second compound 0.3 µM, first compound 0.1 µM.
Where [20] appears, read: second compound 0.3 µM, first compound 0.316 µM.
The mark [21] stands for this setting: second compound 0.3 µM, first compound 1 µM.
[22] abbreviates: second compound 0.3 µM, first compound 3.16 µM.
Where [23] appears, read: second compound 0.3 µM, first compound 10 µM.
[24] abbreviates: second compound 0.949 µM, first compound 0.0316 µM.
Setting [25] is: second compound 0.949 µM, first compound 0.1 µM.
The mark [26] stands for this setting: second compound 0.949 µM, first compound 0.316 µM.
Where [27] appears, read: second compound 0.949 µM, first compound 1 µM.
The mark [28] stands for this setting: second compound 0.949 µM, first compound 3.16 µM.
[29] abbreviates: second compound 0.949 µM, first compound 10 µM.
The mark [30] stands for this setting: second compound 3 µM, first compound 0.0316 µM.
Setting [31] is: second compound 3 µM, first compound 0.1 µM.
Setting [32] is: second compound 3 µM, first compound 0.316 µM.
The mark [33] stands for this setting: second compound 3 µM, first compound 1 µM.
Where [34] appears, read: second compound 3 µM, first compound 3.16 µM.
Where [35] appears, read: second compound 3 µM, first compound 10 µM.
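Note: spheroids exposed to agents for 7 days.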
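Throughout, for viability, T/C: 100% = DMSO vehicle control wells.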

On to `C=C(F)C(=O)N1CCN(c2nc(OCC3CCCN3C)nc3c2CCN(c2cccc4cccc(Cl)c24)C3)CC1CC#N` (stereo not drawn) + CCN1C(C(=O)NC23CCC(C(=O)O)(CC2)CC3)C(c2cccc(Cl)c2F)C2(C(=O)Nc3cc(Cl)ccc32)C12CCCCC2, for which the IC50 is, setting by setting: under setting [1], 4.75 µM; under setting [2], 4.63 µM; under setting [3], 4 µM; under setting [4], 1.61 µM; under setting [5], less than 0.0316 µM. Further, the viability, T/C by setting is: under setting [6], 123%; under setting [7], 107%; under setting [8], 109%; under setting [9], 99.8%; under setting [10], 79.5%; under setting [11], 0.44%. Also, the viability, T/C is, setting by setting: under setting [12], 92.7%; under setting [13], 92.5%; under setting [14], 103%; under setting [15], 88.6%; under setting [16], 75.2%; under setting [17], 0.22%. Moreover, the viability, T/C reads like this: under setting [18], 76.3%; under setting [19], 82.5%; under setting [20], 86.1%; under setting [21], 73.2%; under setting [22], 63.7%; under setting [23], 0.17%. In addition, the viability, T/C is 58.2% under setting [24]; 57.5% under setting [25]; 61.4% under setting [26]; 64% under setting [27]; 35.6% under setting [28]; 0.22% under setting [29]. Besides, the viability, T/C is, setting by setting: under setting [30], 38.4%; under setting [31], 37.3%; under setting [32], 38.8%; under setting [33], 37%; under setting [34], 23.6%; under setting [35], 0.69%.
For `Cc1c(S(C)(=O)=O)c(-c2cc(F)cc(N3CCN(c4ccc(NS(=O)(=O)c5ccc(NC(CCN6CCC(C(=O)OCCCP(=O)(O)O)CC6)CSc6ccccc6)c(S(=O)(=O)C(F)(F)F)c5)cc4)CC3)c2)c(-c2ccc(Cl)cc2)n1C(C)C` (stereo not drawn), under “compound alone, run of 09/27/2022”, the IC50 was more than 10 µM.
As to `C=CC(=O)N1CCN(c2nc(=O)n(-c3c(C)ccnc3C(C)C)c3nc(-c4c(O)cccc4F)c(F)cc23)C(C)C1` (stereo not drawn) + CCN1C(C(=O)NC23CCC(C(=O)O)(CC2)CC3)C(c2cccc(Cl)c2F)C2(C(=O)Nc3cc(Cl)ccc32)C12CCCCC2, the IC50 is more than 10 µM under setting [1]; more than 10 µM under setting [2]; more than 10 µM under setting [3]; 3.74 µM under setting [4]; less than 0.0316 µM under setting [5]. In addition, the viability, T/C under setting [6] is 124%; the viability, T/C under setting [7] was 119%; the viability, T/C under setting [8] was 119%; the viability, T/C under setting [9] was 127%; the viability, T/C under setting [10] is 122%; the viability, T/C under setting [11] is 125%. Also, the viability, T/C is 119% under setting [12]; 92.9% under setting [13]; 112% under setting [14]; 94.5% under setting [15]; 113% under setting [16]; 103% under setting [17]. Besides, the viability, T/C reads like this: under setting [18], 74.9%; under setting [19], 82.2%; under setting [20], 81.2%; under setting [21], 79.4%; under setting [22], 74.7%; under setting [23], 69.1%. In addition, the viability, T/C under setting [24] was 62.5%; the viability, T/C under setting [25] is 59.3%; the viability, T/C under setting [26] is 58.1%; the viability, T/C under setting [27] was 57.3%; the viability, T/C under setting [28] was 51.4%; the viability, T/C under setting [29] is 42%. Moreover, the viability, T/C is 33.2% under setting [30]; 36% under setting [31]; 35.9% under setting [32]; 36.5% under setting [33]; 41% under setting [34]; 32.7% under setting [35].
With `C=CC(=O)N1CCN(c2nc(=O)n(-c3c(C)ccnc3C(C)C)c3nc(-c4c(O)cccc4F)c(F)cc23)C(C)C1` (stereo not drawn), the viability, T/C was 105% and 89.2% and 107% (compound 0.0316 µM); 92.6% and 91.2% and 95.4% (compound 0.1 µM); 92.2% and 96.7% and 90.9% (compound 0.316 µM); 102% and 99.8% and 107% (compound 1 µM); 97.3% and 94.7% and 112% (compound 3.16 µM); 114% and 102% and 97.3% (compound 10 µM). In addition, where the note is “curve of compound”, the IC50 is more than 10 µM.
